Reference: patent US20240360151A1 (SANOFI, priority 2023, published 2024)

Key:
NLRP3 inflammasome = target: T1, NLRP3 inflammasome (Homo sapiens, UniProt Q96P20); assay: IL-1β secretion assay (NLRP3 IC50) in LPS-primed, nigericin-activated THP-1 cells, HTRF; assay type: cell-based; details: monocytic THP-1 cells; LPS 10 ng/mL 3 h priming, then compound + nigericin 10 μM 2 h; relative IC50, 10 concentrations, geometric mean
T1 construct: endogenous in cells; host or cells: THP-1 monocytic cells
How it was run: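 THP-1 cells primed with LPS 10 ng/mL for 3 h at 37° C., then compound (10-point 1:3 dilution, 0.1% DMSO) added with 10 μM nigericin for 2 h. Supernatant IL-1β measured by HTRF; relative IC50 from a 4-parameter logistic fit, reported as geometric mean.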

[1] = system: NF-kB pathway (TNF-α secretion by THP-1 cells); assay: TNF-α secretion assay in LPS-stimulated THP-1 cells, Lumit immunoassay; assay type: cell-based, human; details: monocytic THP-1 cells, LPS 10 ng/mL, relative IC50, 10 concentrations, geometric mean
How it was run: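 THP-1 monocytes in RPMI with 5% FBS were treated with compound, then stimulated with 10 ng/mL LPS for 3 h. Secreted TNF-α was measured in-plate by Lumit immunoassay. Relative IC50 came from 10-concentration curves fitted with a 4-parameter logistic model, reported as geometric mean.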

T1 sequence (Q96P20 whole entry): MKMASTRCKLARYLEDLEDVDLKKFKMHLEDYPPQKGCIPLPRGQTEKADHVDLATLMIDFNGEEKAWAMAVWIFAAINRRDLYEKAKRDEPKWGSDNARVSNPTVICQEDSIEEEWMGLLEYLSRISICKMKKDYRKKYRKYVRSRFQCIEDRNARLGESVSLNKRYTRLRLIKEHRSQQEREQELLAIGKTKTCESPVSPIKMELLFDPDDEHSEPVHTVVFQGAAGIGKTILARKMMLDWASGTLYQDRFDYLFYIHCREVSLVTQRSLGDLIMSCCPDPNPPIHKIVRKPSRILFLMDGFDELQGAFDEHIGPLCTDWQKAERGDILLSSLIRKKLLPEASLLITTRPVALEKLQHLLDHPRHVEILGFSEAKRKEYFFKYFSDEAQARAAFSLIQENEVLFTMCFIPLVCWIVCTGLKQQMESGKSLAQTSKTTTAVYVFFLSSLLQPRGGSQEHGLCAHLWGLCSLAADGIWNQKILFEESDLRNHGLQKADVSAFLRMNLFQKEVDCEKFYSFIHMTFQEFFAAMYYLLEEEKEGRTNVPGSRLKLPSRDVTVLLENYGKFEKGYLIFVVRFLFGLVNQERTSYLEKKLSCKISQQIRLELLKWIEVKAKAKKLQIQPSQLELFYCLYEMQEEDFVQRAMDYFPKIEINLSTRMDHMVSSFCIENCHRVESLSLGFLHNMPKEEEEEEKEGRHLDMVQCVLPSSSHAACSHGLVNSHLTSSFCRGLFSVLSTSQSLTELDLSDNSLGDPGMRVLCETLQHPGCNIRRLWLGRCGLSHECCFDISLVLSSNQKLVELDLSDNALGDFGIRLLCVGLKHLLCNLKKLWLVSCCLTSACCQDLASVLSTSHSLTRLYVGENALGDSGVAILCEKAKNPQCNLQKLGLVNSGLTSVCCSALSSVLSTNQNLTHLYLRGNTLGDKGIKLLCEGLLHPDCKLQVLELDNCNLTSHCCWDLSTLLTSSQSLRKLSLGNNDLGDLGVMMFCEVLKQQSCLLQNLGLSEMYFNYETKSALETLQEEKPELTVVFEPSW

SMILES	IC50 (NLRP3 inflammasome)	IC50 ([1]; 3 hours)	IC50 ([1]; Homo sapiens, THP-1, 3 h)
CC(=O)NCCC1CN(c2ccc(-c3c(C)cc(C(F)(F)F)cc3O)nn2)CCO1 (single isomer, unassigned) [Example 278, N-[2-[4-[6-[2-hydroxy-6-methyl-4-(trifluoromethyl)phenyl]pyridazin-3-yl]morpholin-2-yl]ethyl]acetamide]	50 nM	> 10000 nM	
Cc1cc(C(F)(F)F)cc(O)c1-c1ccc(N2CCO[C@H](CF)C2)nn1 (single isomer, unassigned) [Example 284]	87 nM		> 10000 nM
Cc1cc(C(F)(F)F)cc(O)c1-c1ccc(N2CCC(CO)CC2=O)nn1 (single isomer, unassigned) [Example 293]	84 nM		> 10000 nM
CCN1CC[C@@H]2OCCN(c3ccc(-c4c(C)cc(Cl)cc4O)nn3)[C@@H]2C1 (single isomer, unassigned) [Example 312]	56 nM		> 10000 nM
CCN1CC[C@H]2OCCN(c3ccc(-c4c(C)cc(Cl)cc4O)nn3)[C@H]2C1 (single isomer, unassigned) [Example 313]	0.3 nM		> 10000 nM
Cc1cc(Cl)cc(O)c1-c1ccc(N2CCO[C@@H]3CCN(C)C[C@@H]32)nn1 (single isomer, unassigned) [Example 321]	1 nM		> 10000 nM
Cc1cc(C(F)(F)F)cc(O)c1-c1ccc(N2CCO[C@H]3CCN(C)C[C@@H]32)nn1 (single isomer, unassigned) [Example 343]	47 nM		> 10000 nM
Cc1cc(N2CC[C@@H]3CCN(C)C[C@@H]32)nnc1-c1ccc(C(F)(F)F)cc1O (single isomer, unassigned) [Example 366]	25 nM		> 10000 nM
Cc1cc(N2CC[C@H]3CCN(C)C[C@H]32)nnc1-c1ccc(C(F)(F)F)cc1O (single isomer, unassigned) [Example 367]	0.5 nM		> 10000 nM
Cc1ccc(-c2nnc(N3CC[C@@H]4CCN(C)C[C@@H]43)cc2C)c(O)c1 (single isomer, unassigned) [Example 374]	42 nM		> 10000 nM
Cc1ccc(-c2nnc(N3CC[C@H]4CCN(C)C[C@H]43)cc2C)c(O)c1 (single isomer, unassigned) [Example 375]	0.4 nM		> 10000 nM
Cc1cc(C)c(-c2ccc(N3CC[C@@H]4CCN(C)C[C@@H]43)nn2)c(O)c1 (single isomer, unassigned) [Example 384]	0.4 nM		> 10000 nM
CC(=O)N1CC[C@H]2OCCN(c3ccc(-c4c(C)cc(Cl)cc4O)nn3)[C@H]2C1 (single isomer, unassigned) [Example 397]	23 nM		> 10000 nM
Cc1cc(C(F)(F)F)cc(O)c1-c1ccc(N2CC[C@@H]3CCNC[C@@H]32)nn1 (single isomer, unassigned) [Example 407]	3 nM		> 10000 nM
Cc1cccc(O)c1-c1ccc(N2CC[C@H]3CCN(C)C[C@H]32)nn1 (single isomer, unassigned) [Example 416]	1 nM		> 10000 nM
CCc1cccc(O)c1-c1ccc(N2CC[C@H]3CCN(C)C[C@H]32)nn1 (single isomer, unassigned) [Example 423]	0.48 nM		> 10000 nM
CN1CC[C@H]2CCN(c3ccc(-c4c(O)cccc4C(F)(F)F)nn3)[C@H]2C1 (single isomer, unassigned) [Example 427]	2 nM		> 10000 nM
CCN1CC[C@H]2CCN(c3ccc(-c4c(C)cc(C(F)(F)F)cc4O)nn3)[C@H]2C1 (single isomer, unassigned) [Example 429]	< 0.36 nM		> 10000 nM
Cc1cc(C)c(-c2ccc(N3CCC[C@]4(C3)C[C@H](O)C4)nn2)c(O)c1 (single isomer, unassigned; isomer 1) [Example 175, 6-[6-(2-hydroxy-4,6-dimethyl-phenyl)pyridazin-3-yl]-6-azaspiro[3.5]nonan-2-ol Isomer 1]	522 nM		> 10000 nM

SMILES	IC50 (NLRP3 inflammasome)	IC50 ([1]; 3 hours)	IC50 ([1]; Homo sapiens, THP-1, 3 h)
Cc1cc(C)c(-c2ccc(N3CCC[C@]4(C3)C[C@@H](O)C4)nn2)c(O)c1 (single isomer, unassigned; isomer 2) [Example 176, 6-[6-(2-hydroxy-4,6-dimethyl-phenyl)pyridazin-3-yl]-6-azaspiro[3.5]nonan-2-ol Isomer 2]	250 nM		> 10000 nM
Cc1cc(C)c(-c2ccc(N3C[C@@H]4COC[C@H]4C3)nn2)c(O)c1 (stereo in doubt) [Example 207, 2-[6-[(3aR,6aR)-1,3,3a,4,6,6a-hexahydrofuro[3,4-c]pyrrol-5-yl]pyridazin-3-yl]-3,5-dimethyl-phenol]	174 nM		3010 nM
CC(=O)N1CC[C@@H]2OCCN(c3ccc(-c4c(C)cc(C(F)(F)F)cc4O)nn3)[C@@H]2C1 (stereo in doubt) [Example 398, 1-[(4aR,8aS)-4-[6-[2-hydroxy-6-methyl-4-(trifluoromethyl)phenyl]pyridazin-3-yl]-3,4a,5,7,8,8a-hexahydro-2H-pyrido[4,3-b][1,4]oxazin-6-yl]ethanone]	17 nM		> 10000 nM
CCN1CC[C@H]2CCN(c3ccc(-c4c(C)cc(C(F)(F)F)cc4O)nn3)[C@H]2C1 (stereo in doubt) [Example 406, 2-[6-[(3aS,7aR)-6-ethyl-3,3a,4,5,7,7a-hexahydro-2H-pyrrolo[2,3-c]pyridin-1-yl]pyridazin-3-yl]-3-methyl-5-(trifluoromethyl)phenol]	78 nM		> 10000 nM
Cc1cc(C)c(-c2ccc(N3CCC(O)CC3)nn2)c(O)c1 [Example 1, 1-[6-(2-hydroxy-4,6-dimethyl-phenyl)pyridazin-3-yl]piperidin-4-ol]	407 nM		> 10000 nM
Cc1cc(C)c(-c2ccc(N3CCOC[C@H]3CO)nn2)c(O)c1 [Example 5, 2-[6-[(3R)-3-(hydroxymethyl)morpholin-4-yl]pyridazin-3-yl]-3,5-dimethyl-phenol]	290 nM		> 10000 nM
Cc1cc(C)c(-c2ccc(N3CCOC[C@@H]3CO)nn2)c(O)c1 [Example 6, 2-[6-[(3S)-3-(hydroxymethyl)morpholin-4-yl]pyridazin-3-yl]-3,5-dimethyl-phenol]	235 nM		> 10000 nM
Cc1cc(C)c(-c2ccc(N3CCO[C@H](CO)C3)nn2)c(O)c1 [Example 8, 2-[6-[(2S)-2-(hydroxymethyl)morpholin-4-yl]pyridazin-3-yl]-3,5-dimethyl-phenol]	20 nM		> 10000 nM
Cc1cc(C)c(-c2ccc(N3CCO[C@@H](CO)C3)nn2)c(O)c1 [Example 9, 2-[6-[(2R)-2-(hydroxymethyl)morpholin-4-yl]pyridazin-3-yl]-3,5-dimethyl-phenol]	113 nM		> 10000 nM
COC[C@H]1CCCN1c1ccc(-c2c(C)cc(C(F)(F)F)cc2O)nn1 [Example 14, 2-[6-[(2R)-2-(methoxymethyl)pyrrolidin-1-yl]pyridazin-3-yl]-3-methyl-5-(trifluoromethyl)phenol]	605 nM		> 10000 nM
COC[C@@H]1CCCN1c1ccc(-c2c(C)cc(C(F)(F)F)cc2O)nn1 [Example 15, 2-[6-[(2S)-2-(methoxymethyl)pyrrolidin-1-yl]pyridazin-3-yl]-3-methyl-5-(trifluoromethyl)phenol]	406 nM		> 10000 nM
Cc1cc(C(F)(F)F)cc(O)c1-c1ccc(N2CCO[C@H](CO)C2)nn1 [Example 16, 2-[6-[(2S)-2-(hydroxymethyl)morpholin-4-yl]pyridazin-3-yl]-3-methyl-5-(trifluoromethyl)phenol]	25 nM		> 10000 nM
NC1(C2CCCN(c3ccc(-c4c(O)cc(Cl)cc4Cl)nn3)C2)CC1 (stereo not shown) [Example 17, 2-[6-[3-(1-aminocyclopropyl)-1-piperidyl]pyridazin-3-yl]-3,5-dichloro-phenol]	473 nM		> 10000 nM
NC[C@@H]1CCCN(c2ccc(-c3c(O)cc(Cl)cc3Cl)nn2)C1 [Example 18, 2-[6-[(3S)-3-(aminomethyl)-1-piperidyl]pyridazin-3-yl]-3,5-dichloro-phenol]	173 nM		> 10000 nM
Cc1cc(C(F)(F)F)cc(O)c1-c1ccc(N2CC[C@H](CO)C2)nn1 [Example 20, 2-[6-[(3S)-3-(hydroxymethyl)pyrrolidin-1-yl]pyridazin-3-yl]-3-methyl-5-(trifluoromethyl)phenol]	44 nM		> 10000 nM
OC[C@@H]1CN(c2ccc(-c3c(O)cc(Cl)cc3Cl)nn2)CCO1 [Example 21, 3,5-dichloro-2-[6-[(2S)-2-(hydroxymethyl)morpholin-4-yl]pyridazin-3-yl]phenol]	20 nM		> 10000 nM
NC[C@H]1CCCN(c2ccc(-c3c(O)cc(Cl)cc3Cl)nn2)C1 [Example 22, 2-[6-[(3R)-3-(aminomethyl)-1-piperidyl]pyridazin-3-yl]-3,5-dichloro-phenol]	153 nM		> 10000 nM
NC[C@@H]1CCN(c2ccc(-c3c(O)cc(Cl)cc3Cl)nn2)C1 [Example 23, 2-[6-[(3S)-3-(aminomethyl)pyrrolidin-1-yl]pyridazin-3-yl]-3,5-dichloro-phenol]	192 nM		> 10000 nM
NC[C@H]1CCN(c2ccc(-c3c(O)cc(Cl)cc3Cl)nn2)C1 [Example 25, 2-[6-[(3R)-3-(aminomethyl)pyrrolidin-1-yl]pyridazin-3-yl]-3,5-dichloro-phenol]	109 nM		> 10000 nM
